Consider 59 compounds from the METLIN SMRT retention time set (Domingo-Almenara et al. 2019).

The nature of this data set: gradient 5% acetonitrile 3 min, to 50% in 2 min, to 85% in 15 min, held 3 min, 100 µL/min. Conditions: column: Zorbax Extend-C18 2.1 x 50 mm; eluents: water / acetonitrile, 0.1% formic acid. Put shortly: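 Retention times of pure standards were taken from adduct peaks that were selected by computer and manually inspected. Over 3 months, mixtures of ~100 molecules were run by HPLC–quadrupole time-of-flight mass spectrometry in positive and negative ionization mode. The Zorbax Extend-C18 column (2.1 × 50 mm, 1.8 μm) ran at 100 μL/min in water and acetonitrile, each containing 0.1% formic acid, with 40 μL dead volume and 900 μL dwell volume.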
Regarding `COc1cccc(Nc2nc(C)c(C(=O)Nc3ccc(F)c(Cl)c3)s2)c1`, the RP-LC retention time was found to be 1060 s. As for `O=C(Nc1cccc(-c2ccc(N3CCOCC3)nn2)c1)Nc1ccc(F)cc1F`, the figure is 723 s; as for `Cc1ccc(C(=O)CC2(O)C(=O)Nc3c(C)cccc32)cc1` (centres undefined), 748 s; as for `CCOc1ccc(NC(=O)N2CCC(c3cc(N)on3)CC2)cc1`, 690 s. The value for `COc1ccc(-c2cc3n(n2)CCCN(S(=O)(=O)c2ccc(C(C)=O)cc2)C3)cc1` was 882 s; that for `Cn1c(=O)c(N2CCN(C(=O)c3ccc(Cl)cc3)CC2)nc2ccncc21` was 560 s; that for `CCSc1nccc2c1ccn2CC(=O)NCc1ccc(Br)cc1` was 681 s.

In the case of `CC(=O)NCc1ccc(-c2noc(-c3cc(Cl)ccc3F)n2)s1`, the RP-LC retention time was 888 s.

Compound `CC(=O)N1c2ccc(S(=O)(=O)N3CCCC3)cc2CC1C(=O)NCCN(C)Cc1ccccc1` (centres undefined) gave an RP-LC retention time of 619 s.

`CC(C)Cc1noc(C2(F)CCN(S(=O)(=O)c3ccc(Cl)c(Cl)c3)CC2)n1` showed an RP-LC retention time of 1300 s. As for `Cc1cc2[nH]c(C(=O)Nc3ccccc3F)c(CN(C)C)c2s1`, the figure is 654 s; as for `O=C(NCCCN1CCOCC1)c1ccc2ccnc(N3CCN(c4ccccc4F)CC3)c2c1`, 595 s. The value for `CCOCCCNC(=O)c1cc2n(n1)CCCN(Cc1cccc(C)c1)C2=O` was 780 s; that for `COc1ccc(-n2ccn3cc(-c4ccc5c(c4)OCO5)nc3c2=O)cc1Cl` was 833 s. As for `O=C1CCCN1CCCN1C(=O)[C@H]2CN(Cc3ccccc3OC(F)(F)F)C[C@H]2C1=O`, the figure is 687 s; as for `Cc1cc2ccccc2n2c(SCC(=O)NCC3CCCO3)nnc12` (centres undefined), 628 s. The compound `O=C(c1cccs1)N1CCC2(CC1)NC(=O)N(Cc1ccc(Cl)cc1)C2=O` showed an RP-LC retention time of 816 s. The value for `O=C(CN1C(=O)C2CCCCN2c2ccc(S(=O)(=O)N3CCCCC3)cc21)NCc1ccccc1` (centres undefined) was 988 s; that for `CCOc1ccc(NC(=O)C2CCN(C(=O)C3Sc4ccccc4NC3=O)CC2)cc1` (centres undefined) was 725 s. As for `CCc1nc2cc(N3CCC(C(=O)NCCN4CCCCC4C)CC3)cnc2nc1CC` (centres undefined), the figure is 605 s; as for `COc1ccc(-c2cc3n(n2)CCCN(C(=O)NCC2CCCO2)C3)cc1` (centres undefined), 681 s. The value for `Cc1nc2cc(-c3noc(-c4ccc(C#N)cc4)n3)ccc2n(C(C)C)c1=O` was 929 s; that for `CCCn1ncc(N2CCC(C(=O)NCCCN3CCCC3=O)CC2)cc1=O` was 594 s. As to `CCc1nn2c(CNC(=O)c3ccc(C)c(F)c3)c(-c3ccccc3)nc2s1`, the RP-LC retention time worked out at 985 s. As for `CCOC(=O)Cc1cc(=O)c2cc(C)ccc2[nH]1`, the figure is 695 s; as for `Cc1ccc(-n2nc(N3CCCC(C(=O)NCc4ccc5c(c4)OCO5)C3)ccc2=O)cc1Cl` (centres undefined), 875 s. As for `Cc1ccc(NC(=O)N2CCC(C)(C(=O)NCc3ccc(F)cc3)CC2)cc1Cl`, the figure is 664 s; as for `CCCCn1cnc2c(-c3ccccc3)cn(CC(=O)NCCC(C)C)c2c1=O`, 1050 s; as for `CCn1c(=O)c(N2CCN(C(=O)c3cccs3)CC2)nc2cccnc21`, 900 s.

As for `Cc1ccc(-c2noc(-c3nn(CC(=O)NC4CCC(C)CC4)c4ccccc34)n2)cc1` (centres undefined), the RP-LC retention time came out at 1300 s. As for `CCCN(Cc1ccc(OC)c(OC)c1)Cc1cc(=O)n2cc(Cl)ccc2n1`, the figure is 632 s.

Take `Fc1ccc(-c2noc3ncnc(N4CCN(c5ccccn5)CC4)c23)cc1`: the RP-LC retention time was 660 s. As for `O=C([C@@H]1C[C@H](F)CN1C(=O)Nc1ccc(C(F)(F)F)cc1)N1CCc2ccccc2C1`, the figure is 857 s; as for `Cc1ccc(Cl)cc1NC(=O)C1CCCN1S(=O)(=O)c1cc2c(cc1C)NC(=O)CO2` (centres undefined), 842 s; as for `COc1cc(C(=O)N2CCN(c3cc(-c4cccs4)[nH]n3)CC2)cc(OC)c1OC`, 699 s. The value for `O=c1c2cnn(-c3ccc(Br)cc3)c2ncn1Cc1nc(-c2ccccc2)no1` was 1150 s. The value for `COc1cccc(NC(=O)C2CCCCN2S(=O)(=O)c2ccc(F)cc2)c1` (centres undefined) was 1000 s; that for `O=C(Nc1nc2c(Cl)cccc2s1)C1COc2ccccc2O1` (centres undefined) was 983 s. `CCOc1ccc(NS(=O)(=O)c2cc(C(=O)N3CCN(c4ccc(F)cc4)CC3)n[nH]2)cc1` gave an RP-LC retention time of 876 s. Turning to `CCCC(=O)Nc1ccc2nc(N3CCN(c4cccc(C)c4C)CC3)cc(C(=O)O)c2c1`, the RP-LC retention time is 732 s. As for `OC(C#Cc1ccccc1)(c1ccccc1)c1ccccc1`, the figure is 764 s.

Regarding `Cc1oc2c(C)c3oc(=O)c(CC(=O)N4CCC(C(N)=O)CC4)c(C)c3cc2c1C`, the RP-LC retention time came to 735 s.

On to `CCCCn1cc(S(=O)(=O)Nc2ccccc2F)c2cccnc21`, for which the RP-LC retention time was found to be 922 s. As for `Cc1nc(NS(=O)(=O)CCOc2ccc(F)cc2)sc1C`, the figure is 710 s; as for `Cc1noc(C2CN(C(=O)Nc3ccc4c(c3)CCC4)CC23CCOCC3)n1` (centres undefined), 777 s; as for `O=C(Cc1c[nH]c2ncccc12)NCc1cccc(Br)c1`, 647 s. The value for `CCc1nc2cc(-c3noc(-c4n[nH]c5ccccc45)n3)ccc2o1` was 645 s; that for `CC(C)N1CCN(S(=O)(=O)c2ccc(-c3nnc(C4CCC4)o3)o2)CC1` was 637 s; that for `COc1ccc(-c2cn3c(CC(=O)Nc4ccc(Br)cc4F)csc3n2)cc1OC` was 821 s. For `CCOC(=O)c1c(C)oc2nc(C)nc(N3CCN(c4ccccc4F)CC3)c12`, the RP-LC retention time amounted to 1210 s.

`O=C(CCc1c(-c2ccc(Cl)cc2)nc2ccccn12)N1CCOCC1` gave an RP-LC retention time of 587 s.

`CC(=O)c1cccc(Nc2c(C(=O)OC(C)C)cnc3nc(C)ccc23)c1`: the RP-LC retention time amounted to 694 s. The value for `CN1C(=O)C2(CCN(C(=O)c3ccnn3C)CC2)c2ccccc21` was 699 s; that for `CC1CN(C(=O)c2cccc3c2-c2ccccc2C3=O)CC(C)O1` (centres undefined) was 754 s; that for `COC(=O)c1cnc2nc(C)ccc2c1NCc1ccc2c(c1)OCO2` was 659 s. As for `CCCNC(=O)C1CCN(c2nc3ccc(-c4ccsc4)nc3s2)CC1`, the figure is 851 s; as for `O=C(C1CCCN(c2nnc(-n3cccc3)s2)C1)N1CCN(Cc2ccccc2)CC1` (centres undefined), 661 s; as for `CCn1c(=O)c(C)nc2cc(-c3noc(/C=C/c4ccc(OC)cc4)n3)ccc21`, 1140 s. As for `Cc1nc(OCC(=O)NCc2ccc3c(c2)OCO3)c2ccccc2n1`, the figure is 698 s.
